Data from patent publication US12006328B2, “Thieno[2,3-d]pyrimidin-4-one derivatives as NMDAR modulators and uses related thereto” (Emory University, priority 2014, dated 2024).

How the values were obtained:
Format in all cases: cell-based
[1] = target: GluN2D-containing NMDA receptors (Homo sapiens, UniProt O15399); test: Two-electrode voltage-clamp recordings from Xenopus laevis oocytes, GluN2D; conditions: for I10 μM/ICONTROL (mean ± SEM, %) Glu N2D: 10 μM test compound with glutamate 100 μM and glycine 30 μM, Tables 1-5; for I10 μM/ICONTROL (mean ± SEM, %) Glu N2D / maximal potentiation Glu N2D: percent of response without compound; for IC50 / maximal potentiation Glu N2D: Table 2; for IC50: glutamate 100 μM, glycine 30 μM, Hill fit, read-out: IC50 Glu N2D; for maximal potentiation Glu N2D: in brackets below IC50
Sequence of GluN2D-containing NMDA receptors (O15399 28-1336, other chains not shown): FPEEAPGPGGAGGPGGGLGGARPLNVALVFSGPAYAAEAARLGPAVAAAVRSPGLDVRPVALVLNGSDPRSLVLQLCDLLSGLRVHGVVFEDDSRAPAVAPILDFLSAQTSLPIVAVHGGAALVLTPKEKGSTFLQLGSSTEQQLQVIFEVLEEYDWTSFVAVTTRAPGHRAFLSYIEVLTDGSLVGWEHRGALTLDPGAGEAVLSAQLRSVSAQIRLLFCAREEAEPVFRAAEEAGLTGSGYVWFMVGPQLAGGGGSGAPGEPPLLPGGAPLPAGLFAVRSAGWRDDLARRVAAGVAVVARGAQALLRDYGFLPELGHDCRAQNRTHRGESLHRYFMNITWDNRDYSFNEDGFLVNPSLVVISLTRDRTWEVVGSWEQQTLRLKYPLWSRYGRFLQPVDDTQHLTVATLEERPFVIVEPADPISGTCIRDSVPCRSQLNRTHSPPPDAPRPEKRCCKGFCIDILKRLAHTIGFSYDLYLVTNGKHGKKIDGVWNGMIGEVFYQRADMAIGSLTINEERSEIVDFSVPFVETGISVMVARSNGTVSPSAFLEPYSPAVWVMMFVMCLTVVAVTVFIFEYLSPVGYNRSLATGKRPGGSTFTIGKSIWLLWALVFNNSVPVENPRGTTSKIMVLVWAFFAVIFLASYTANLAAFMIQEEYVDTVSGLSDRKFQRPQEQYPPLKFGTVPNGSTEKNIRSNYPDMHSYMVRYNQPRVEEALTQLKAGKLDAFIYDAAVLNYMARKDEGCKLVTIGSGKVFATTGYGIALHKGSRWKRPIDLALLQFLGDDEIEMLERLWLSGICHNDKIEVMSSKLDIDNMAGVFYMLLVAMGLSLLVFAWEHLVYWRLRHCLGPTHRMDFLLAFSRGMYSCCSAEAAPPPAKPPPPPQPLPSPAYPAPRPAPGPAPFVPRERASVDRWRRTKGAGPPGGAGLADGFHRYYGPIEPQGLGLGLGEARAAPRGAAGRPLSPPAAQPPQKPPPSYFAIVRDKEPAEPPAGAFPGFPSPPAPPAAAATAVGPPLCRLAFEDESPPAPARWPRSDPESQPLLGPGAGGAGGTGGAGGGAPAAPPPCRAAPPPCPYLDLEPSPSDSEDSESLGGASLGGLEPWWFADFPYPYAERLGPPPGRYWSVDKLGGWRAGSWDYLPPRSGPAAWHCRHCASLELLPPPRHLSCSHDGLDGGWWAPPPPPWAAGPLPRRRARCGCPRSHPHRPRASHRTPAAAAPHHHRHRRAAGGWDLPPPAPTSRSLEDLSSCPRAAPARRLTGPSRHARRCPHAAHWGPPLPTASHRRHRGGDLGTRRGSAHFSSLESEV
Description: (§1) Xenopus laevis oocytes were injected with cRNA encoding the NMDA receptor subunits. Two to seven days after injection, two-electrode voltage-clamp recordings were performed. Extracellular solutions were made from a solutions containing (in mM) 90 NaCl, 3 KCl, 10 HEPES, 0.5 BaCl2, 0.01 EDTA (pH 7.4 with NaOH). Voltage and current electrodes were filled with 0.3 M and 3.0 M KCl, respectively.
(§2) Potency was determined by adding increasing concentrations of test compound to saturating concentrations of glutamate (100 μM) and glycine (30 μM), and the response amplitude measured. The response in the presence of each concentration of test compound plus agonists was expressed as a percent of the response in the absence of test compound.

[2] = target: GluN2B-containing NMDA receptors (Homo sapiens, UniProt Q13224); test: Two-electrode voltage-clamp recordings from Xenopus laevis oocytes, GluN2B; conditions: for I10 μM/ICONTROL (mean ± SEM, %) Glu N2B: 10 μM test compound with glutamate 100 μM and glycine 30 μM, Tables 1-5; for I10 μM/ICONTROL (mean ± SEM, %) Glu N2B / maximal potentiation Glu N2B: percent of response without compound; for IC50 / maximal potentiation Glu N2B: Table 2; for IC50: glutamate 100 μM, glycine 30 μM, Hill fit, read-out: IC50 Glu N2B; for maximal potentiation Glu N2B: in brackets below IC50
Sequence of GluN2B-containing NMDA receptors (Q13224 27-1484, other chains not shown): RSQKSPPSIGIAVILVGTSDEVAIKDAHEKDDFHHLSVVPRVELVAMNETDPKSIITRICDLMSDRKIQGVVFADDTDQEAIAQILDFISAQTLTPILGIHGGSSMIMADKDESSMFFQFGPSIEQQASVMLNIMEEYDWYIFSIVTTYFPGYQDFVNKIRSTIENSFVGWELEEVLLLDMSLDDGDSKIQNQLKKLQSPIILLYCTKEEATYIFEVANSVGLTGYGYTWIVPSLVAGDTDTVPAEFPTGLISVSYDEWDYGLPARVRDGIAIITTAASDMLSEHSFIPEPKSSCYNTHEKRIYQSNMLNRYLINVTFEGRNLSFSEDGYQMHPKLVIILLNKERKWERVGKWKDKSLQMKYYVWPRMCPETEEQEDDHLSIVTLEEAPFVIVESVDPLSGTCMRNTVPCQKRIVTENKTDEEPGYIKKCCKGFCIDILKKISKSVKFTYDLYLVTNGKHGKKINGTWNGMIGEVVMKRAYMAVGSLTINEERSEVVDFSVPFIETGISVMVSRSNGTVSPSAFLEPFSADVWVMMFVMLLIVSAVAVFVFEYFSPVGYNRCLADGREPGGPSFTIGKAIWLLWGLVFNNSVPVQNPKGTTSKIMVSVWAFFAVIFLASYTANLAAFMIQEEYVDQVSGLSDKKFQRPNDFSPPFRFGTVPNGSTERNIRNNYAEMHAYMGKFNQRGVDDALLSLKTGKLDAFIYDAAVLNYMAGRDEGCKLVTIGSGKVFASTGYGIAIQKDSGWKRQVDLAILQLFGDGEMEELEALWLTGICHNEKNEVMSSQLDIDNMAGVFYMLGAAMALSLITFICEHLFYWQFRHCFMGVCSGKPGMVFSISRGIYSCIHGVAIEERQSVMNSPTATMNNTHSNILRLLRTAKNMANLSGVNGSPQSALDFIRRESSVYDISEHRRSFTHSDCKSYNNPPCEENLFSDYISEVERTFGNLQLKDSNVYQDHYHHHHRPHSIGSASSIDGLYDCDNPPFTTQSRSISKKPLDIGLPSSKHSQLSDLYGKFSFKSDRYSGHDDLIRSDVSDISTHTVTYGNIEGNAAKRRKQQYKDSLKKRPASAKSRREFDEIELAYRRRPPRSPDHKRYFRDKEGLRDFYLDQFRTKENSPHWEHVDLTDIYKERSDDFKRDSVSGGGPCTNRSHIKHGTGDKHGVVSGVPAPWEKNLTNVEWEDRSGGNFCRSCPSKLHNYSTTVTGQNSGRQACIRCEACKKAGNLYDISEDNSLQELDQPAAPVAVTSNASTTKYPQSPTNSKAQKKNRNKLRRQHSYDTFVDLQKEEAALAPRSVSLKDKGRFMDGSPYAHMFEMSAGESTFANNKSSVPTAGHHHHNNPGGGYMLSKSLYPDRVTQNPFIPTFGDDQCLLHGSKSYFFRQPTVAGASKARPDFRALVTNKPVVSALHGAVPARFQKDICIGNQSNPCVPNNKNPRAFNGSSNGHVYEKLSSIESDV
Description: as §1, §2

[3] = target: GluN2C-containing NMDA receptors (Homo sapiens, UniProt Q14957); test: Two-electrode voltage-clamp recordings from Xenopus laevis oocytes, GluN2C; conditions: for I10 μM/ICONTROL (mean ± SEM, %) Glu N2C: 10 μM test compound with glutamate 100 μM and glycine 30 μM, Tables 1-5; for I10 μM/ICONTROL (mean ± SEM, %) Glu N2C / maximal potentiation Glu N2C: percent of response without compound; for IC50 / maximal potentiation Glu N2C: Table 2; for IC50: glutamate 100 μM, glycine 30 μM, Hill fit, read-out: IC50 Glu N2C; for maximal potentiation Glu N2C: in brackets below IC50
Sequence of GluN2C-containing NMDA receptors (Q14957 20-1233, other chains not shown): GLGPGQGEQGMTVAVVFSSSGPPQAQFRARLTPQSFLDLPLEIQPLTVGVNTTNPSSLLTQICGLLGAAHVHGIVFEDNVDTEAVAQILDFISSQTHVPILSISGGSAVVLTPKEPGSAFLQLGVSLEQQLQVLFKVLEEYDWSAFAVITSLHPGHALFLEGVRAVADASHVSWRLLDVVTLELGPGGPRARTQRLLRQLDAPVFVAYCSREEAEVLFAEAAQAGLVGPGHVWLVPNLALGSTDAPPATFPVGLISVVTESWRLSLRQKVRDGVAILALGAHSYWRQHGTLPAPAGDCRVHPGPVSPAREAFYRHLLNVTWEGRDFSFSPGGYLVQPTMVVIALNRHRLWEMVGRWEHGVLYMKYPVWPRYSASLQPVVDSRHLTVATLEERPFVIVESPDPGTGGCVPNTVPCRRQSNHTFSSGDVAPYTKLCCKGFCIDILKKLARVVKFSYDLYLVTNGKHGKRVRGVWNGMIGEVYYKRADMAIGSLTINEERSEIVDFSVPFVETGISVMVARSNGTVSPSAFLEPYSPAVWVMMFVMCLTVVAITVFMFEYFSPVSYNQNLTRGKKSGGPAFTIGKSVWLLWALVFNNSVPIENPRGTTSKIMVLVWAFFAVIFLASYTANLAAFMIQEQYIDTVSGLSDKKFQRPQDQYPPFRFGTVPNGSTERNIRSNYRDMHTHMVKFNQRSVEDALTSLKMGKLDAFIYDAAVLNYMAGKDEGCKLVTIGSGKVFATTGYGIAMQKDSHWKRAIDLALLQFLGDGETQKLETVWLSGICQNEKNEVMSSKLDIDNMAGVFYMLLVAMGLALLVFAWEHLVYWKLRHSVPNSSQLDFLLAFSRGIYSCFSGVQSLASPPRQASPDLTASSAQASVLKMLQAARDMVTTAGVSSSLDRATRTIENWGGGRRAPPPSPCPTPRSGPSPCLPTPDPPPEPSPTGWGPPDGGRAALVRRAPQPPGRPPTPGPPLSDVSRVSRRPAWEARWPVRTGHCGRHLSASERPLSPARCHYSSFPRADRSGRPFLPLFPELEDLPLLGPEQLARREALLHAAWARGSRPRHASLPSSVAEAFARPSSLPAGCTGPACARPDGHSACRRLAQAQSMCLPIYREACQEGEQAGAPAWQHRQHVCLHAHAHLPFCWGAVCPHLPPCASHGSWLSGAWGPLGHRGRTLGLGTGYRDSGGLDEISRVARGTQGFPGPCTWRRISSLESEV
Description: as §1, §2

| Compound | I10 μM/ICONTROL (mean ± SEM, %) Glu N2D [1] | I10 μM/ICONTROL (mean ± SEM, %) Glu N2B [2] | I10 μM/ICONTROL (mean ± SEM, %) Glu N2C [3] | IC50 [1] | maximal potentiation Glu N2D [1] | IC50 [3] | maximal potentiation Glu N2C [3] | IC50 [2] | maximal potentiation Glu N2B [2] |
| --- | --- | --- | --- | --- | --- | --- | --- | --- | --- |
| COC(=O)[C@@H]1CCCN1C(=O)Cn1cnc2sc(C)c(-c3ccc(Br)cc3)c2c1=O | 147 ± 12.7% | 109 ± 4.9% | 159 ± 9.5% | – | – | – | – | – | – |
| Cc1sc2ncn(Cc3cn(CCC4OCCCO4)nn3)c(=O)c2c1-c1cccc(Cl)c1 | 88 ± 3.4% | 89 ± 2.5% | 88 ± 0.5% | – | – | – | – | – | – |
| Cc1sc2ncn(Cc3cnnn3CCC3OCCCO3)c(=O)c2c1-c1cccc(Cl)c1 | 91 ± 1.3% | 89 ± 2.5% | 92 ± 0.8% | – | – | – | – | – | – |
| COCCn1cc(Cn2cnc3sc(C)c(-c4cccc(Cl)c4)c3c2=O)nn1 | 84 ± 3.4% | 99 ± 1.9% | 93 ± 2.2% | – | – | – | – | – | – |
| Cc1sc2ncn(CC(=O)N3CCCCC3)c(=O)c2c1-c1ccc(Br)c(Br)c1 [1 / 3,4-Br—Ph / Me / —Npiperidine] | 143 ± 3.2% | – | 168 ± 13.9% | 94 µM | (600) % | 15 µM | (300) % | – | – |
| Cc1sc2ncn(CC(=O)N3CCCCC3)c(=O)c2c1-c1cc(Br)cc(Br)c1 [1 / 3,5-Br—Ph / Me / —Npiperidine] | 179 ± 10.1% | – | 232 ± 14.4% | – | – | 4.3 µM | (233) % | – | – |
| Cc1sc2ncn(CC(=O)N3CCCCC3)c(=O)c2c1-c1cc(C(F)(F)F)cc(C(F)(F)F)c1 [1 / 3,5-CF3—Ph / Me / —Npiperidine] | – | – | – | – | – | 1.4 µM | (155) % | – | – |
| Cc1sc2ncn(CC(=O)c3cccs3)c(=O)c2c1-c1cccc(Cl)c1 [1 / 3-Cl—Ph / Me / 2-thiophene] | 137 ± 6.3% | 133 ± 3.9% | 125 ± 2.8% | 15 µM | (224) % | 19 µM | (293) % | 14 µM | (207) % |
| CCOC(=O)Cn1cnc2sc(C)c(-c3cccc(Cl)c3)c2c1=O [1 / 3-Cl—Ph / Me / OEt] | 136 ± 3.0% | 127 ± 4.6% | 141 ± 7.0% | 16 µM | (245) % | 26 µM | (390) % | 17 µM | (148) % |
| Cc1sc2ncn(CC(=O)O)c(=O)c2c1-c1cccc(Cl)c1 [1 / 3-Cl—Ph / Me / OH] | 89 ± 1.4% | 93 ± 1.2% | 93 ± 1.4% | – | – | – | – | – | – |
| Cc1sc2ncn(CC(=O)Oc3ccccc3)c(=O)c2c1-c1cccc(Cl)c1 [1 / 3-Cl—Ph / Me / OPh] | 89 ± 1.6% | 96 ± 2.6% | 110 ± 5.9% | – | – | – | – | – | – |
| CCSC(=O)Cn1cnc2sc(C)c(-c3cccc(Cl)c3)c2c1=O [1 / 3-Cl—Ph / Me / SEt] | 90 ± 1.3% | 95 ± 0.9% | 95 ± 2.8% | – | – | – | – | – | – |
| Cc1sc2ncn(CC(=O)SC(C)(C)C)c(=O)c2c1-c1cccc(Cl)c1 [1 / 3-Cl—Ph / Me / StBu] | 73 ± 2.6% | 92 ± 4.6% | 87 ± 4.0% | – | – | – | – | – | – |
| Cc1sc2ncn(CC(=O)c3ccc(Cl)cc3Cl)c(=O)c2c1-c1cccc(I)c1 [1 / 3-I—Ph / Me / 2,4-Cl—Ph] | 93 ± 1.8% | – | 96 ± 4.8% | – | – | – | – | – | – |
| Cc1sc2ncn(CC(=O)c3cccs3)c(=O)c2c1-c1cccc(I)c1 [1 / 3-I—Ph / Me / 2-thiophene] | 177 ± 7.0% | 129 ± 4.5% | 180 ± 10.7% | 11 µM | (262) % | 9.3 µM | (255) % | 7.7 µM | (147) % |
| COc1cccc(C(=O)Cn2cnc3sc(C)c(-c4cccc(I)c4)c3c2=O)c1 [1 / 3-I—Ph / Me / 3-OMe—Ph] | 99 ± 4.3% | 107 ± 3.0% | 107 ± 4.9% | – | – | – | – | – | – |
| COc1ccc(C(=O)Cn2cnc3sc(C)c(-c4cccc(I)c4)c3c2=O)cc1 [1 / 3-I—Ph / Me / 4-OMe—Ph] | 94 ± 1.1% | 84 ± 5.2% | 94 ± 1.94% | – | – | – | – | – | – |

| Compound | I10 μM/ICONTROL (mean ± SEM, %) Glu N2D [1] | I10 μM/ICONTROL (mean ± SEM, %) Glu N2B [2] | I10 μM/ICONTROL (mean ± SEM, %) Glu N2C [3] | IC50 [1] | maximal potentiation Glu N2D [1] | IC50 [3] | maximal potentiation Glu N2C [3] | IC50 [2] | maximal potentiation Glu N2B [2] |
| --- | --- | --- | --- | --- | --- | --- | --- | --- | --- |
| Cc1sc2ncn(CC(=O)C3CCCC3)c(=O)c2c1-c1cccc(I)c1 [1 / 3-I—Ph / Me / -cyclopentyl] | 133 ± 3.0% | – | 166 ± 9.5% | 14 µM | (191) % | 9.4 µM | (225) % | – | – |
| Cc1sc2ncn(CC(=O)OC(C)(C)C)c(=O)c2c1-c1cccc(I)c1 [1 / 3-I—Ph / Me / OtBu] | 94 ± 4.3% | 87 ± 3.9% | 101 ± 6.8% | – | – | – | – | – | – |
| Cc1sc2ncn(CC(=O)c3ccccc3)c(=O)c2c1-c1cccc(I)c1 [1 / 3-I—Ph / Me / Ph] | 133 ± 3.1% | 139 ± 3.9% | 161 ± 10.9% | 41 µM | (305) % | 15 µM | (273) % | 7.9 µM | (169) % |
| CON(C)C(=O)Cn1cnc2sc(C)c(-c3cccc(I)c3)c2c1=O [1 / 3-I—Ph / Me / —N(OMe)Me] | 119 ± 8.9% | – | 109 ± 4.9% | – | – | – | – | – | – |
| Cc1sc2ncn(CC(=O)N3CCCCC3)c(=O)c2c1-c1cccc(I)c1 [1 / 3-I—Ph / Me / —Npiperidine] | 124 ± 4.8% | – | 145 ± 11.4% | – | – | – | – | – | – |
| Cc1sc2ncn(CC(=O)N(C)C)c(=O)c2c1-c1ccc(Br)cc1 [1 / 4-Br—Ph / Me / —N(Me)2] | 105 ± 1.8% | 92 ± 1.7% | 109 ± 3.1% | – | – | – | – | – | – |
| CCOC(=O)CNC(=O)Cn1cnc2sc(C)c(-c3ccc(Br)cc3)c2c1=O [1 / 4-Br—Ph / Me / —NHCH2COOEt] | 104 ± 0.6% | 96 ± 2.1% | 104 ± 2.5% | – | – | – | – | – | – |
| Cc1sc2ncn(CC(=O)NCC(=O)O)c(=O)c2c1-c1ccc(Cl)cc1 [1 / 4-Cl—Ph / Me / —NHCH2COOH] | 93 ± 1.8% | 87 ± 1.3% | 105 ± 3.7% | – | – | – | – | – | – |
| Cc1sc2ncn(CC(=O)N3CCCCC3)c(=O)c2c1-c1ccc(Cl)cc1 [1 / 4-Cl—Ph / Me / —Npiperidine] | – | – | – | 52 µM | (163) % | 136 µM | (232) % | – | – |
| Cc1sc2ncn(CC(=O)N3CCC[C@H]3C(=O)O)c(=O)c2c1-c1ccc(Cl)cc1 [1 / 4-Cl—Ph / Me / —Nproline (S)] | 97 ± 1.9% | 89 ± 1.7% | 104 ± 2.3% | – | – | – | – | – | – |
| Cc1sc2ncn(CC(=O)N3CCCC3)c(=O)c2c1-c1ccc(Cl)cc1 [1 / 4-Cl—Ph / Me / —Npyrrolidine] | – | – | – | 23 µM | (381) % | 15 µM | (347) % | 11 µM | (223) % |
| Cc1ccc(-c2csc3ncn(CC(=O)N4CCC4)c(=O)c23)cc1 [1 / 4-Me—Ph / H / —Nazetidine] | – | – | – | 57 µM | (0) % | > 100 µM | – | – | – |
| CCOC(=O)CCn1cnc2sc(C)c(-c3cccc(Cl)c3)c2c1=O [2 / 3-Cl—Ph / Me / OEt] | 97 ± 1.6% | 107 ± 2.3% | 91 ± 2.5% | – | – | – | – | – | – |
| Cc1sc2ncn(CCC(=O)O)c(=O)c2c1-c1cccc(Cl)c1 [2 / 3-Cl—Ph / Me / OH] | 97 ± 1.1% | 99 ± 0.6% | 89 ± 6.2% | – | – | – | – | – | – |
| Cc1sc2ncn(CCC(=O)Oc3ccccc3)c(=O)c2c1-c1cccc(Cl)c1 [2 / 3-Cl—Ph / Me / OPh] | 88 ± 2.4% | 104 ± 3.6% | 91 ± 1.1% | – | – | – | – | – | – |
| Cc1sc2ncn(CCC(=O)N3CCCC3)c(=O)c2c1-c1cccc(Cl)c1 [2 / 3-Cl—Ph / Me / —Npyrrolidine] | 90 ± 1.7% | 95 ± 1.7% | 99 ± 5.0% | – | – | – | – | – | – |
| O=C(Cn1cnc2sc3c(c2c1=O)CCCC3)c1ccc(Cl)cc1Cl [2,4-Cl] | 97 ± 1.8% | 91 ± 3.6% | 106 ± 4.4% | – | – | – | – | – | – |
